The source of these data is US12637413B2, “Fatty acid amide hydrolase (FAAH) cleavable prodrugs of thyromimetics and combination with peripherally restricted FAAH inhibitors” (Autobahn Therapeutics, Inc., priority 2021, dated 2026).

Read-outs that look alike come from different tables or passages of the source.

The test system of one test is T4. Kind of test: plasma T4 (ELISA) after 7 days PO QD dosing. The settings on record: Mus musculus; effects on plasma T4, PO QD 7 days, 4 or 8 h after last dose. Type of test: in vivo, Female C57BL/6 mice. The method, then:
Female C57BL/6 mice (n=5/group), 6-8 weeks old, were acclimated to the study room for at least 3 days before dose administration in the studies. Mice were dosed at 5 mL/kg based on most recent body weight, collected once for the duration of the study. Based on most recent body weight, collected once for the duration of the study, mice were placed into weight-matched treatment dosing cohorts. Mice were given a single administration of PFI or vehicle orally (PO) daily (n=5/group) for 7 days at time=−1 hour. Following the PFI (100 μg/kg) or vehicle dose (10 mL/kg, p.o.), animals were given test article daily at time=0 hour. […] RNA from samples harvested 4 hours after final dose was quantified using a hybridization-based in situ RNA quantification method (NanoString, Seattle, WA), as described below. RNA from samples harvested 8 hours after final dose was quantified using a hybridization-based in situ RNA quantification method (QuantiGene Plex), as described below. […]
T4 was measured in terminal plasma samples using an ELISA kit (Biovision, Inc., Thyroxine [T4] [Mouse/Rat] ELISA Kit, Cat #: K7421-100). […] Absorbance was read at 450 nm within 15 min of addition of the Stop Solution using a Varioskan Lux plate reader (ThermoFisher Scientific, Carlsbad, CA). […] Unknown sample concentrations were determined using GraphPad Prism software (GraphPad Prism 9.0.2, GraphPad Software, San Diego, CA). […]
Background: An ELISA detects its analyte on a solid surface through an enzyme-linked reagent.

A further test has as its system T3-regulated genes. Kind of test: gene expression in brain and liver after 7 days PO QD dosing. It counts as in vivo, Female C57BL/6 mice. The settings on record: Mus musculus, PO QD 7 days, 4 or 8 h after last dose. As for the experimental part: Female C57BL/6 mice (n=5/group), 6-8 weeks old, were acclimated to the study room for at least 3 days before dose administration in the studies. Mice were dosed at 5 mL/kg based on most recent body weight, collected once for the duration of the study. Based on most recent body weight, collected once for the duration of the study, mice were placed into weight-matched treatment dosing cohorts. Mice were given a single administration of PFI or vehicle orally (PO) daily (n=5/group) for 7 days at time=−1 hour. Following the PFI (100 μg/kg) or vehicle dose (10 mL/kg, p.o.), animals were given test article daily at time=0 hour. Test article administration one of eight dose levels (0.1, 0.3, 1, 3, 10, 30, 100 or 300 μg/kg) on Days 1-7 for a total of seven doses. Mice were dosed PO, QD for 7 days with (A) active metabolite or (B) prodrug alone; (C) prodrug+PFI (LL-650177) or (D) prodrug+GFI. […] RNA from samples harvested 4 hours after final dose was quantified using a hybridization-based in situ RNA quantification method (NanoString, Seattle, WA), as described below. RNA from samples harvested 8 hours after final dose was quantified using a hybridization-based in situ RNA quantification method (QuantiGene Plex), as described below. […]

As to `CNC(=O)COc1cc(Cl)c(Cc2ccc(O)c(C(C)C)c2)c(Cl)c1` [Compound 1], the ED50 with T4 came to 3.4 µg/kg; in the test with T3-regulated genes (gene expression in brain, read-out: Brain (ED50 mg/kg)) it was 0.044 mg/kg; with T3-regulated genes (gene expression in liver, read-out: Liver (ED50 mg/kg)), 0.0025 mg/kg.
